In patent publication US9624288B2, “Engineered receptors and their use” (University of Pittsburgh—Of the Commonwealth System of …, priority 2012, dated 2017):
Where two headings read alike, the source gives them in different places.

Assays:
[1] = molecular target: T1, EGRAFY mutant (R91A, F188Y; SEQ ID NO: 15) (Dickeya chrysanthemi, UniProt P0C7B7, F187Y/INS163G/R91A); experiment: Two-electrode voltage clamp, amine agonist activation of the EGRAFY mutant in oocytes; assay type: cell-based, Erwinia chrysanthemi / human
T1 construct: expressed in transfected cells; host or cells: Xenopus laevis oocytes
Procedure: (§1) For pH measurements, 10 mM MES was added. […] Non-linear regressions were performed using Prism software (Graphpad). […] (FIG. 2).

[2] = molecular target: T2, EG3 (SEQ ID NO: 12) ELIC-GlyR (EG) Cl- channel (Dickeya chrysanthemi, UniProt P0C7B7, INS163G); experiment: Two-electrode voltage clamp, amine agonist activation of the EG channel in Xenopus oocytes; assay type: cell-based, Erwinia chrysanthemi / human; conditions: for Hill slope / Hill coeff.: agonist dose response on EG channel
T2 construct: expressed in transfected cells; host or cells: Xenopus laevis oocytes injected with construct DNA in the pAAV vector
Procedure: as §1

[3] = tested on: CFA-induced inflammation of the hind paw; conditions: for mechanical hypersensitivity, EG channel not activated: EG rats before cysteamine versus control group
Procedure: In one experiment, 8 rats were assigned to two groups to receive either EG expression plasmid or the control plasmid […] the EG insertion. […] Thereafter, inflammation was induced in the same hind paw by complete Freund's adjuvant (CFA) injection (50 μl). Hypersensitivity was measured using a Von Frey pain-testing device after CFA injection. This test measures the maximum force applied to the paw through a flexible thin wire before paw withdrawal. Note that this version of the channel design, EG3 (SEQ ID NO: 12), requires a small agonist molecule (propylamine or cysteamine) to open the Cl^− channels.
Rats were randomly assigned to two groups to receive a subcutaneous injection of 1 mg (in 200 μl) purified EG expression vector into the left hind paw or the control plasmid vector without the EG insertion in an identical fashion. […] After CFA injections, the rats were tested both before and after cysteamine administration to assess the specific analgesic effects from the expressed EG channels.
The Institutional Animal Care and Use Committee at the University of Pittsburgh approved all animal procedures used in the studies. Male Sprague-Dawley rats, weighing 220-250 g, were obtained from Harlan Laboratories, allowed to acclimate to the housing and experimental facilities, evaluated for baseline behavioral response to thermal and mechanical pain, and then subjected to inflammatory pain model and behavioral testing. The expression vectors, 1000 μg in a volume of 200 μl phosphate-buffered saline (PBS), were injected directly into the plantar of the left hind paw with a 27-gauge needle under brief 2.5% isoflurane anesthesia. One week after the vector injection, 50 μl of CFA (Sigma, St. Louis, Mo., USA) were injected into the same hind paw subcutaneously with a 27-gauge needle under brief isoflurane anesthesia, as described previously {Fraser, 2000 #180}.
Animals were placed above a grid floor inside a plastic divider. Thresholds to the mechanical pressures applied directly onto the plantar by a blunt metal filament of 100 mm in length and 0.38 mm in diameter were assessed using a custom-made von Frey apparatus. The apparatus uses a high precision load cell (100 g capacity and 0.01 g accuracy) interfaced with a PASPORT load cell amplifier (Model PS-2205, PASCO Scientific, Roseville, Calif.) for continuously measuring the forces applied to the plantar through the metal filament. The DataStudio software from PASCO Scientific was used to record the entire time course of the applied forces and the maximum force immediately before the paw withdrawal. The threshold values were determined as a mean of at least three separate measurements under each testing condition.
Both von Frey and plantar tests were conducted using the schedule as depicted in FIG. 3a. On each testing day after CFA injection, behavioral evaluations were repeated before and at least 15 min after cysteamine administration. Cysteamine (500 μl of 100 mM solution in PBS) was injected subcutaneously elsewhere on the body to prevent tissue damage from repeated injections.

[4] = prescription drug for cystinosis; cited from earlier work
[5] = tested on: CFA-induced inflammation of the hind paw; experiment: Plantar (Hargreaves) test of thermal hypersensitivity after CFA-induced inflammation; assay type: in vivo, rat
Procedure: The plantar sensitivity to heat-induced pain was examined using a plantar algesia meter (Model 390G; IITC Life Science, Woodland Hills, Calif.; active intensity, 23%). Rats were placed inside a plastic divider on a constant-temperature glass plate and acclimated to the environment for at least 20 minutes before testing. A heat source was focused directly onto the plantar surface of the hind paw. Once activated, the apparatus applied a continuous heat stimulus to the plantar surface to evoke a distinctive reflex of paw withdrawal. The rats were examined with at least a five-minute interval between consecutive tests. Paw withdrawal latencies were recorded and averaged for each hind paw. A 22-second automatic cut-off time was set to prevent tissue damage from heating.

EG channel = EG channel (Dickeya chrysanthemi, UniProt P0C7B7, INS163G)
Procedure: Non-linear regressions were performed using Prism software (Graphpad).

ELIC-GlyR chimeras = experiment: Cysteamine response of ELIC-GlyR chimera constructs in Xenopus oocytes; assay type: cell-based, Erwinia chrysanthemi / human
From the text: The EG chimera was constructed by fusing the extracellular domain of ELIC with the transmembrane domain of the α1 subunit of human GlyR. Five constructs were made to test the importance of interface elements at the fusion junction (pre-TM1), the loop between transmembrane helices 2 and 3 (TM23), and C-terminus (Figure S1 a). In addition, the long cytoplasmic loop was removed to facilitate homogeneous expression (i.e., “VSR . . . KID” was replaced with “[…]”). All designed constructs expressed functional channels in Xenopus oocytes and were responsive to the agonist cysteamine. The constructs mostresponsive to cysteamine, EG and EGd (Figure S1 b), included a native GlyR TM23 loop and an ELIC C-terminus (Figure S1). The fusion junction had less effect on cysteamine response (compare EG and EGd).

T1 sequence (P0C7B7 other isoform, or with tags, fused parts or gaps R91A/INS163G/F187Y): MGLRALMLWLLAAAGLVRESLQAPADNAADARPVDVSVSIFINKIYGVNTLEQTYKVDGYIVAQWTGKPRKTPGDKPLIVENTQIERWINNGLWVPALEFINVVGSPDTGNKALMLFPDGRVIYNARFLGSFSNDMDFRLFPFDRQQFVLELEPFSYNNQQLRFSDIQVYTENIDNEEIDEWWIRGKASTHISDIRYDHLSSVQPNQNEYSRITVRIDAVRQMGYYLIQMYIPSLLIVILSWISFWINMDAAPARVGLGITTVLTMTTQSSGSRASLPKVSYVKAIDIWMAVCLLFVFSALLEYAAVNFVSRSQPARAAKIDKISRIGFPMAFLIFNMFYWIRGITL

Molecule: CCCN [propylamine]
- increase in potency in the EGRAFY mutant as compared to the EG channel [1]: ~3 orders of magnitude
- Hill coeff. ([1]; EGRAFY mutant, n=6): 0.98±0.07
- EC50 [2]: 740 ± 110 µM
- Hill slope / Hill coeff. [2]: 0.5±0.04

Molecule: NCCS [cysteamine]
- mechanical hypersensitivity / pain scores after cysteamine administration ([3]; control plasmid rats (no EG), after CFA, listed as Cysteamine): no analgesia
- safety in clinical use [4]: safe with no psychoactive effects
- thermal hypersensitivity after cysteamine administration ([5]; control plasmid rats (no EG), after CFA): not inherently an analgesic
- thermal hypersensitivity after cysteamine administration ([5]; rats expressing EG, after CFA): significantly attenuated
- EC50 [2]: 960 ± 120 µM
- Hill slope / Hill coeff. [2]: 1.1±0.1

B1: EG channel: ELIC extracellular domain fused to human GlyR α1 transmembrane domain; amine-gated Cl- channel, delivered as expression plasmid in vivo (protein)
chain: MGLRALMLWLLAAAGLVRESLQAPADNAADARPVDVSVSIFINKIYGVNTLEQTYKVDGYIVAQWTGKPRKTPGDKPLIVENTQIERWINNGLWVPALEFINVVGSPDTGNKRLMLFPDGRVIYNARFLGSFSNDMDFRLFPFDRQQFVLELEPFSYNNQQLRFSDIQVYTENIDNEEIDEWWIRGKASTHISDIRYDHLSSVQPNQNEFSRITVRIDAVRQMGYYLIQMYIPSLLIVILSWISFWINMDAAPARVGLGITTVLTMTTQSSGSRASLPKVSYVKAIDIWMAVCLLFVFSALLEYAAVNFVSRSQPARAAKIDKISRIGFPMAFLIFNMFYWIRGITL
modifications: Engineered Chloride Channel Receptor
notes: ELIC extracellular domain fused to human GlyR α1 transmembrane domain; amine-gated Cl- channel, delivered as expression plasmid in vivo
- shift in reversal potential upon replacing Na+ with choline (EG channel): no significant shift
- shift in reversal potential upon replacing Cl- with gluconate (EG channel; 130 mM external solution): 50 mV
- mechanical hypersensitivity, EG channel not activated ([3]; after CFA): did not produce measurable changes
- mechanical hypersensitivity, EG channel not activated ([3]; after CFA, listed as EG): no measureable effects
- mechanical hypersensitivity, EG channel not activated ([3]; after CFA, listed as EG channels): little measurable changes
- basal mechanical and thermal thresholds ([3]; rat, in vivo): neither EG nor the control plasmids caused measureable changes
- cysteamine response of the construct (ELIC-GlyR chimeras): mostresponsive
- hypersensitivity to heat-induced pain, EG channel not activated ([5]; EG rats before cysteamine versus control group): partially alleviated
- latency to paw withdrawal, EG injection compared to the control ([5]; after CFA, EG n=4, control n=5): significant attenuation of thermal hypersensitivity
